Assay results from US20080138395A1, “Pharmaceutical Composition for the Prevention and Control of Cancer” (priority 2005, published 2008).

Tested on: H69: human, small cell lung carcinoma
Test: Apoptosis (Annexin testing system) and defective cells in H69 tumor cells in vitro
Format: cell-based
Conditions: 10 days of treatment
Source text: The effect of reduced glutathion (G-SH) and anthocyans and betacyans on tumor cell lines, specifically H69: human, small cell lung carcinoma, was examined by in vitro studies, both individually and with various combinations of the ingredient. G-SH and betalain were used in the form of dry extract from beta vulgaris (product: Betatom by Messrs. Sprüh-Atom Schumann & Sohn GmbH, Karlsruhe) and, for purposes of comparison, anthocyans in the form of dry extract from cassis (black currant) and vaccinium (blueberry). The tumor cells were sown in vitro in DMEM with 10% FCS. The final concentration of G-SH, Betatom, cassis and vaccinium, the substances added, was 1 mM. Apoptosis was measured with an Annexin testing system. All tests were repeated once. The effect on H69 tumor cells may be gathered from the table below. After treatment of the cells for ten days, the number both of apoptotic and defective cells was clearly higher in comparison with untreated controls.

[1] = 1 mM, difference to untreated control
[2] = final concentration of substances added 1 mM, DMEM with 10% FCS

## N[C@@H](CCC(=O)N[C@@H](CS)C(=O)NCC(=O)O)C(=O)O [GSH, gamma glutamyl cysteinyl glycin]
[1]
  apoptotic cells: variation compared with control (%): −5%
  defective cells: variation compared with control (%): 8.9%
[2]
  apoptotic cells (% of total cells): 21.9 % of total cells
  defective cells (% of total cells): 37.9 % of total cells
